Source: publication PMC6270983, “Gastroprotective Mechanisms of Action of Semisynthetic Carnosic Acid Derivatives in Human Cells” (Molecules, 2014)

Key:
[1] = system: MRC-5 fibroblasts; test: Proliferation assay of MRC-5 fibroblasts, neutral red uptake; assay type: cell-based, human; conditions: 4 days
Description: Human lung fibroblasts MRC-5 (ATCC CCL-171) were grown as monolayers in minimum essential Eagle medium (MEM), with Earle’s salts, 2 mM L-glutamine and 2.2 g/L sodium bicarbonate, supplemented with 10% heat-inactivated fetal bovine serum (FBS), 100 IU/mL penicillin and 100 µg/mL streptomycin in a humidified incubator with 5% CO2 in air at 37 °C. For the subsequent experiments, cells were plated at a density of 2.5 × 10^4 cells/mL in 96-well plates.
Untreated cells were used as controls. Cell viability was determined at the end of the incubation by means of the NRU assay. The neutral red concentration was 0.05 mg/mL [4, 33].

[2] = system: human erythrocyte membranes; test: Inhibition of lipoperoxidation in erythrocyte membranes; assay type: biochemical
Description: The inhibition of lipid peroxidation was determined using human erythrocyte membranes. The products were tested at 500 µg/mL.

[3] = system: AGS cells; test: Cellular reduced glutathione (GSH) content in AGS cells co-incubated with 4% ethanol; assay type: cell-based, human; conditions: 12 h; for percent increase of GSH content compared with untreated controls: AGS cells
[4] = system: AGS cells; test: Prostaglandin E2 (PGE2) content of AGS cells, enzyme immunoassay; assay type: cell-based, human
[5] = system: AGS cells; test: Sodium taurocholate (NaT)-induced damage to AGS cells, viability by neutral red uptake; conditions: 60 min pre-treatment, then 10 mM NaT 30 min
Description: The model of AGS cells damaged by sodium taurocholate (NaT) was used to determine the gastroprotective effect of the compounds against the bile-induced injury on the gastric mucosa [10].
The effect of sodium taurocholate (NaT) on cell viability was determined according to Romano et al. [10]. […] Then, 10 mM NaT was added to all wells for 30 min. Un-treated cells were used as controls. Sucralfate (4 mg/mL) was used as reference compound. After incubation, the neutral red uptake (NRU, 0.05 mg/mL) assay was carried out to determine cell viability [4, 33].

COC(=O)[C@]12CCCC(C)(C)C1CCc1cc(C(C)C)c(OC)c(OC(C)=O)c12 (stereo partly shown) [Compound 17]
stimulation of fibroblast proliferation compared to untreated controls ([1]; 23 µM): 7%

CCCC(=O)Oc1c(C(C)C)cc2c(c1OC(=O)CCC)[C@@]1(C(=O)OC)CCCC(C)(C)C1CC2 (stereo partly shown) [Compound 7]
stimulation of fibroblast proliferation compared to untreated controls ([1]; 16 µM): 8%
Inhibition of the lipoperoxidation, percent effect at 500 µg/mL [2]: 34%

COC(=O)[C@]12CCCC(C)(C)C1CCc1cc(C(C)C)c(OC(=O)CCCc3c[nH]c4ccccc34)c(O)c12 (stereo partly shown) [Compound 13, 12-O-indolebutyrylmethylcarnosate]
percent increase of GSH content compared with untreated controls ([3]; 2.0 µM): 11%
increase of PGE2 content compared to controls ([4]; 20 µM, AGS cells): 2.7 fold
Inhibition of the lipoperoxidation, percent effect at 500 µg/mL [2]: 49%
percent cytoprotective effect compared to NaT control ([5]; 2.5 µM): 12%
percent cytoprotective effect compared to NaT control ([5]; 5 µM): 8%

O.Oc1cc(O)c2c(c1)O[C@H](c1ccc(O)c(O)c1)[C@@H](O)C2 [Catechin, reference compound]
Inhibition of the lipoperoxidation, IC50 [2]: IC50 75.4 ± 6.0 µg/mL

COC(=O)[C@]12CCCC(C)(C)C1CCc1cc(C(C)C)c(OC(=O)Cc3ccccc3)c(OC(=O)Cc3ccccc3)c12 (stereo partly shown) [Compound 11]
Inhibition of the lipoperoxidation, IC50 [2]: IC50 140.4 ± 12.6 µg/mL
percent cytoprotective effect compared to NaT control ([5]; 62.5 µM): 12%

COC(=O)[C@]12CCCC(C)(C)C1CCc1cc(C(C)C)c(OC)c(O)c12 (stereo partly shown) [Compound 15, 12-O-metylmethylcarnosate]
percent increase of GSH content compared with untreated controls ([3]; 4.5 µM): 11%
Inhibition of the lipoperoxidation, IC50 [2]: IC50 165.0 ± 14.9 µg/mL

COC(=O)[C@]12CCCC(C)(C)C1CCc1cc(C(C)C)c(OC)c(OC)c12 (stereo partly shown) [Compound 2]
Inhibition of the lipoperoxidation, percent effect at 500 µg/mL [2]: 53%

CC(=O)Oc1c(C(C)C)cc2c(c1OC(C)=O)[C@@]1(C(=O)O)CCCC(C)(C)C1CC2 (stereo partly shown) [Compound 3]
Inhibition of the lipoperoxidation, percent effect at 500 µg/mL [2]: 11%
percent cytoprotective effect compared to NaT control ([5]; 10.5 µM): 13%
percent cytoprotective effect compared to NaT control ([5]; 21 µM): 15%
percent cytoprotective effect compared to NaT control ([5]; 42 µM): 13%

COC(=O)[C@]12CCCC(C)(C)C1CCc1cc(C(C)C)c(OC(=O)CCl)c(OC(=O)CCl)c12 (stereo partly shown) [Compound 5]
Inhibition of the lipoperoxidation, IC50 [2]: IC50 27.6 ± 3.0 µg/mL
percent cytoprotective effect compared to NaT control ([5]; 1.1 µM): 17%
percent cytoprotective effect compared to NaT control ([5]; 2.3 µM): 15%
percent cytoprotective effect compared to NaT control ([5]; 4.5 µM): 8%

COc1c(C(C)C)cc2c(c1O)[C@@]1(C(=O)O)CCCC(C)(C)C1CC2 (stereo partly shown) [Compound 14, 12-O-methylcarnosic acid]
percent increase of GSH content compared with untreated controls ([3]; 2.3 µM): 8%
Inhibition of the lipoperoxidation, IC50 [2]: IC50 186.3 ± 16.9 µg/mL
percent cytoprotective effect compared to NaT control ([5]; 2.8 µM): 12%
percent cytoprotective effect compared to NaT control ([5]; 5.6 µM): 5%

COC(=O)[C@]12CCCC(C)(C)C1CCc1cc(C(C)C)c(OC(=O)c3ccccc3)c(OC(=O)c3ccccc3)c12 (stereo partly shown) [Compound 9]
Inhibition of the lipoperoxidation, IC50 [2]: IC50 147.2 ± 16.6 µg/mL

COC(=O)[C@]12CCCC(C)(C)C1CCc1cc(C(C)C)c(OC(=O)Cc3c[nH]c4ccccc34)c(OC(=O)Cc3c[nH]c4ccccc34)c12 (stereo partly shown) [Compound 12]
Inhibition of the lipoperoxidation, percent effect at 500 µg/mL [2]: 38%

COC(=O)[C@]12CCCC(C)(C)C1CCc1cc(C(C)C)c(OC(=O)C(C)C)c(O)c12 (stereo partly shown) [Compound 8]
Inhibition of the lipoperoxidation, IC50 [2]: IC50 13.6 ± 1.48 µg/mL

COC(=O)[C@]12CCCC(C)(C)C1CCc1cc(C(C)C)c(O)c(O)c12 (stereo partly shown) [Compound 1]
Inhibition of the lipoperoxidation, IC50 [2]: IC50 34.4 ± 4.1 µg/mL
percent cytoprotective effect compared to NaT control ([5]; 3 µM): 13%

CC(=O)N[C@@H](CS)C(=O)O [NAC, N-acetyl-L-cysteine, reference compound]
GSH (nmol/10^6 cells) ([3]; 750 µM, control 3.6 ± 0.2): 4.0 ± 0.2 nmol/10^6 cells
percent increase of GSH content compared with untreated controls ([3]; 750 µM): 11%

CCC(=O)Oc1c(C(C)C)cc2c(c1O)[C@@]1(C(=O)OC)CCCC(C)(C)C1CC2 (stereo partly shown) [Compound 6]
Inhibition of the lipoperoxidation, percent effect at 500 µg/mL [2]: 42%

COC(=O)[C@]12CCCC(C)(C)C1CCc1cc(C(C)C)c(OC(=O)c3cccnc3)c(OC(=O)c3cccnc3)c12 (stereo partly shown) [Compound 10, 11,12-O-dinicotinylmethylcarnosate]
percent increase of GSH content compared with untreated controls ([3]; 1.4 µM): 14%
Inhibition of the lipoperoxidation, percent effect at 500 µg/mL [2]: 22%

CCCOc1c(OC)c(C(C)C)cc2c1[C@@]1(C(=O)OC)CCCC(C)(C)C1CC2 (stereo partly shown) [Compound 16]
growth stimulation compared to untreated controls ([1]; 12 µM): 8%
growth stimulation compared to untreated controls ([1]; 24 µM): 18%
Inhibition of the lipoperoxidation, percent effect at 500 µg/mL [2]: 46%

COc1ccc2c(c1)c(CC(=O)O)c(C)n2C(=O)c1ccc(Cl)cc1 [Indomethacin, reference compound]
PGE2 ([4]; 100 µM, 1 h, control 24.9 ± 2.1): 8.5 ± 1.3 pg/mL

CC(C)c1cc2c(c(O)c1O)[C@@]1(C(=O)O)CCCC(C)(C)[C@@H]1CC2 [CA, Carnosic acid]
percent increase of GSH content compared with untreated controls ([3]; 4.5 µM): 19%
Inhibition of the lipoperoxidation, IC50 [2]: IC50 2.4 ± 0.18 µg/mL
percent cytoprotective effect compared to NaT control ([5]; 6 µM): 23%
percent cytoprotective effect compared to NaT control ([5]; 12 µM): 22%

CCCOC(=O)[C@]12CCCC(C)(C)C1CCc1cc(C(C)C)c(OC)c(OCCC)c12 (stereo partly shown) [Compound 18]
stimulation of fibroblast proliferation compared to untreated controls ([1]; 32 µM): 16%
stimulation of fibroblast proliferation compared to untreated controls ([1]; 63 µM): 22%
